Data published in patent US10828315B2 (Madrigal Pharmaceuticals, Inc., priority 2013, dated 2020).
“And” between values parts separate entries of the source, which are not always exact repeats. Equal entries are not always repeated. Where two headings read alike, the source gives them in different places.

Legend:
HER2 [1] = assay: HER2 degradation in BT-474 cells (Example 3, Methods 1 and 2); type: cell-based, human
Method in brief: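 BT-474 cells treated 24 h at 37 °C with 10-point 3-fold compound dilutions; HER2 read by in-cell immunofluorescence after paraformaldehyde fixation, signal normalized to DRAQ5 nuclear stain, EC50 from curve fit. Degradation also checked by western blot of cytosolic lysates against tubulin.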

HER2 [2] = assay: HER2 degradation assay with BT-474 cell line (Example 12, FACS); type: cell-based, human
Human H3122 NSCLC cells = assay: Cell viability assay (CellTiter-Glo) in H3122 cells (Example 4); type: cell-based; conditions: NCI-H3122
Procedure: Human H3122 NSCLC cells were obtained and grown in RPMI in the presence of fetal bovine serum (10%), 2 mM L-glutamine and antibiotics (100 IU/ml penicillin and 100 μg/ml streptomycin, Sigma Aldrich.) Cells were maintained at 37° C., 5% CO2 atmosphere.
Cell viability was measured using the CellTiter-Glo® assay (Promega). In brief, cells were plated in 96-well plates in triplicate at optimal seeding density (determined empirically) and incubated at 37° C., 5% CO2 atmosphere for 24 hr prior to the addition of drug or vehicle (0.3% DMSO) to the culture medium. At the end of the assay, CellTiter-Glo was added to the wells per manufacturer's recommendation, shaken for two minutes and incubated for 10 minutes at room temperature. Luminescence (0.1 sec) was measured with a Victor II microplate reader (Perkin Elmer) and the resulting data were used to calculate cell viability, normalized to vehicle control.
Cells as described above were treated with exemplary SDC-TRAPs and their viability determined as above as well. The following table illustrates the results.

H 3211 NSLC cells = assay: IC50 of continuous and pulsed exposure (Examples 9 and 10); type: cell-based; conditions: read-out: IC50, 72h-continuous; 7.5 × 10^3 cells/well; three replicate columns
[3] = tested on: human urinary bladder cancer cell line RT-112; assay: Cytotoxicity assay (CellTiter-Glo, 72 h), RT-112; type: cell-based; conditions: RT-112, 72 h, read-out: Cytotoxicity (IC50, nM) RT-112
Procedure: (§1) Cytotoxicity of SDC-TRAP molecules was determined in three cancer cell lines. […] 80 μL of CellTiter-Glo was added to each well, followed by room temperature incubation in the dark for 15 minutes. Cell was determined by luminescence. IC50 was calculated using XLfit™ software.

[4] = Mouse plasma stability protocol, up to 1 h (Examples 16-18)
[5] = tested on: human breast cancer cell line BT-474; assay: Cytotoxicity assay (CellTiter-Glo, 72 h), BT-474; type: cell-based; conditions: BT-474, 72 h, read-out: Cytotoxicity (IC50, nM) BT-474
Procedure: as §1

[6] = Artificial membrane permeability assay (PAMPA); conditions: same protocol, second table
[7] = tested on: human urinary bladder cancer cell line SW780; assay: Cytotoxicity assay (CellTiter-Glo, 72 h), SW780; type: cell-based; conditions: SW780, 72 h, read-out: Cytotoxicity (IC50, nM) SW-780
Procedure: as §1

[8] = tested on: HCT-116 human colorectal xenografts; assay: Mouse xenograft efficacy in HCT-116 colon cancer model; conditions: IV, Q7D×3, then drug-free period; SDC-TRAP-0063 200 and 100 mg/kg, SDC-TRAP-0046 94 mg/kg, irinotecan 67 mg/kg, SYN-01 100 mg/kg
Procedure: The cells were maintained in vitro as a monolayer culture in McCoy's 5a Medium. Fetal bovine serum was then be added to the medium. The final concentration of fetal bovine serum was 10%. Cells were cultured at 37° C. and 5% CO2. The tumor cells were routinely sub-cultured twice weekly by trypsin-EDTA treatment. Cells in an exponential growth phase were harvested and counted for tumor inoculation.
100 18-22 g, 5-7 week old, female BALB/cA nude mice were inoculated with the HCT 116 cells (2.0×10^6, 1:1 with Matrigel) subcutaneously on the back of each animal (0.1 mL/mouse). When the average tumor volume reached about 150-250 mm^3, 60 of the inoculated mice was selected based on tumor growth and randomly grouped into 6 treatment groups (10 mice per group) according to the following table.
The administrations were made with 27-gauge IV needle.
During the treatment period, the implanted tumors were measured by caliper twice per week. The tumors were measured for the maximum width (X) and length (Y) and the tumor volumes (V) were calculated using the formula: V=(X^2Y)/2. The differences in the tumor volume between the control and treatment groups were analyzed for significance using the unpaired two-tailed Student's t-test. P<0.05 was considered to be statistically significant. The animal body weights were also weighed and recorded twice per week.

[9] = Stability in cell culture media (Example 18)
Procedure: 98 μL of DMEM+10% FBS, +1% P/S, +1.5 g/L sodium bicarbonate cell culture media was mixed with 2 μL of DMSO and aliquotted into 96-well plates at 250 μL per 0, 1, 2, and 18 hour time point.
3×50 μL media samples in 96 were held in 96-well plates at −80° C. until the last time point was extracted. 200 μL of methanol containing IS was added and mixed by vortex at 1500 rpm for 1.5 minutes at room temperature. The samples were centrifuged at 4400 rpm for 10 minutes at 8° C.

[10] = Tissue Distribution Data for SDC-TRAP-0046, Time (h) 0.083
[11] = Tissue Distribution Data for SDC-TRAP-0046, Time (h) 6
[12] = Tissue Distribution Data for SDC-TRAP-0046, Time (h) 12
[13] = Tissue Distribution Data for SDC-TRAP-0046, Time (h) 24
[14] = Tissue Distribution Data for SDC-TRAP-0046, Time (h) 48
[15] = after SDC-TRAP-0046 50 mg/110 mL/kg IV, DRD, 6 h
[16] = after SDC-TRAP-0046 50 mg/110 mL/kg IV, DRD, 12 h
[17] = after SDC-TRAP-0046 50 mg/110 mL/kg IV, DRD, 24 h
[18] = after SDC-TRAP-0046 50 mg/110 mL/kg IV, DRD, 48 h

In the case of `CCc1c2c(nc3ccc(OC(=O)N(C)CCN(C)C(=O)c4cc5cc(-n6c(O)nnc6-c6cc(C(C)C)c(O)cc6O)ccc5n4C)cc13)-c1cc3c(c(=O)n1C2)COC(=O)C3(O)CC` (centres unmarked) [SDC-TRAP-0010], the IC50 (HER2 [1]) is reported as > 5000 nM, the IC50 (HER2 [2]) is reported as > 5000 nM and the IC50 (Human H3122 NSCLC cells) is reported as 234 nM. The IC50 (H 3211 NSLC cells) was 144 nM and 327 nM and 232 nM.

For `CCc1c2c(nc3ccc(OC(=O)N4CCN(Cc5ccc(-n6c(O)nnc6-c6cc(C(C)C)c(O)cc6O)cc5)CC4)cc13)-c1cc3c(c(=O)n1C2)COC(=O)C3(O)CC` (centres unmarked) [SDC-TRAP-0046, 4,11-diethyl-4-hydroxy-3,14-dioxo-3,4,12,14-tetrahydro-1H-pyrano[3′,4′:6,7]indolizino[1,2-b]quinolin-9-yl 4-(4-(3-(2,4-dihydroxy-5-isopropylphenyl)-5-hydroxy-4H-1,2,4-triazol-4-yl)benzyl)piperazine-1-carboxylate], the IC50 [3] was 20 nM, the “% Remaining (1 h)” value ([4]; % Remaining of parent after 1 h incubation in mouse plasma at 37° C. (10 μM)) was 51.6% and the “% Remaining (1 h, 37° C.)” value ([4]; mouse plasma, 1 h, 37° C.) was 52%. For the same molecule, the “Mouse (10 μM) % Remaining 1 h (37° C.)§” value ([4]; mouse plasma, data from single parent peak) was 50%, the “Mouse (10 μM) % Remaining 1 h (37° C.)*” value ([4]; mouse plasma, sum of both peaks) was 52% and the “Plasma Conc.” value [10] was 360000 nM. The “Tumor Conc.” value [10] was 6.94 nmol/g of tissue, the “Tumor/Plasma Ratio” value [10] was 0.0193 and the “Plasma Conc.” value [11] was 5880 nM. The “Tumor Conc.” value [11] was 4.97 nmol/g of tissue, the “Tumor/Plasma Ratio” value [11] was 0.844 and the “Plasma Conc.” value [12] was 2370 nM. For the same molecule, the “Tumor Conc.” value [12] was 5.21 nmol/g of tissue, the “Tumor/Plasma Ratio” value [12] was 2.20 and the “Plasma Conc.” value [13] was 54.2 nM. For the same molecule, the “Tumor Conc.” value [13] was 2.19 nmol/g of tissue, the “Tumor/Plasma Ratio” value [13] was 40.3 and the “Plasma Conc.” value [14] was “BQL”. For the same molecule, the “Tumor Conc.” value [14] was 0.188 nmol/g of tissue, the “Plasma Conc.” value [15] was 5880 nM and the “Tumor Conc.” value [15] was 4.97 nmol/g of tissue. For the same molecule, the “Plasma Conc.” value [16] was 2370 nM, the “Tumor Conc.” value [16] was 5.21 nmol/g of tissue and the “Plasma Conc.” value [17] was 54.2 nM. The “Tumor Conc.” value [17] was 2.19 nmol/g of tissue, the “Plasma Conc.” value [18] was “BQL” and the “Tumor Conc.” value [18] was 0.188 nmol/g of tissue. The “Tumor/Plasma Ratio” value (after SDC-TRAP-0046 IV, 6 h) was 0.844, the “Tumor/Plasma Ratio” value (after SDC-TRAP-0046 IV, 12 h) was 2.20 and the “Tumor/Plasma Ratio” value (after SDC-TRAP-0046 IV, 24 h) was 40.3. The “Tumor/Plasma Ratio” value (after SDC-TRAP-0046 IV, […]) was 0.0193, the IC50 [5] was 205 nM and the “Mass Retention” value [6] was 88.1%. For the same molecule, the IC50 [7] was 489 nM, the “antitumor activity in HCT-116 xenografts (FIG. 23)” value [8] was “better activity in inhibiting the growth of HCT-116 cells in vivo than either positive control group” and the IC50 (HER2 [1]) was 246 nM. For the same molecule, the IC50 (HER2 [2]) was 246 nM, the “Media (5 μM) % Remaining 19 h (37° C.)” value [9] was 37% and the “Media (5 μM) % Remaining 1 h (37° C.)§” value ([9]; data from single parent peak) was 62%. The “Media (5 μM) % Remaining 1 h (37° C.)*” value ([9]; sum of both peaks) was 65%.
